From patent US6063814A, “Phorbol esters as anti-neoplastic and white blood cell elevating agents” (priority 1997, dated 2000)
Values joined by “and” are separate entries in the source; they are usually repeats but may differ in a detail not shown here. Equal values may be shown once.

Tested on: leukemia (bone marrow myeloblast and promyelocyte)
Assay: Clinical treatment of leukemia patients with TPA
Format: in vivo, humans
Settings: for bone marrow suppression, infection or bleeding: during and after treatment; for Spleen below the rib cage after treatment: 3 cm before
Experimental: The results obtained upon treatment of patients with TPA as presented in tabular form and in subsequent examples.
In the subjects identified as (1) through (5) below, chronic myelocytic leukemia had progressed to acute myelocytic leukemia before treatment with TPA.
Subject No. (1), patient No. 28879. Blood profile before TPA treatment: Hb: 28 g/L; WBC: 1.0×10^9 /L, platelet: 135×10^9 /L. Bone marrow profile before TPA treatment: myeloblast+promyelocyte: 30%. TPA treatment: 1 mg/week (0.25 mg administered four times) for two weeks. Blood profile after treatment: Hb: 86 g/L; WBC: 2.8×10^9 /L, platelet: 283×10^9 /L. Bone marrow profile after TPA treatment: myeloblast+promyelocyte: 2.5%.
Subject No. (2), patient No. 29926. Diagnosis: chronic myelocytic leukemia became acute myelocytic leukemia before treatment. Blood profile before TPA treatment: Hb: 94 g/L; WBC: 9.8×10^9 /L, platelet: 63×10^9 /L. Spleen: 3 cm below the rib cage. Bone marrow profile before TPA treatment: myeloblast+promyelocyte: 36%. TPA treatment: 1 mg/week for 5 weeks. Blood profile after treatment: Hb: 104 g/L; WBC: 4.9×10^9 /L, platelet: 80×10^9 /L. Spleen: 0.5 cm below the rib cage. Bone marrow profile after TPA treatment: myeloblast+promyelocyte: 3%.
Subject No. (3), patient No. 18102. Diagnosis: chronic myelocytic leukemia became acute myelocytic leukemia before treatment. Blood profile before TPA treatment: Hb: 70 g/L; WBC: 27.5×10^9 /L, platelet: 21×10^9 /L. Bone marrow profile before TPA treatment: myeloblast+promyelocyte: 90%. TPA treatment: 1 mg/week for 7 weeks. Blood profile after treatment: Hb: 96 g/L; WBC: 22×10^9 /L, platelet: 70×10^9 /L. Bone marrow profile after TPA treatment: myeloblast+promyelocyte: 2%.
Subject No. (4), patient No. 21315. Diagnosis: chronic myelocytic leukemia became acute myelocytic leukemia before treatment. Blood profile before TPA treatment: Hb: 87 g/L; WBC: 19×10^9 /L, platelet: 150×10^9 /L. Bone marrow profile before TPA treatment: myeloblast+promyelocyte: 67.5%. TPA treatment: 1 mg/week for 7 weeks. Blood profile after treatment: Hb: 45 g/L; WBC: 53.5×10^9 /L, platelet: 210×10^9 /L. Bone marrow profile after TPA treatment: myeloblast+promyelocyte: 4.5%.
Subject No. (5), patient No. 23965. Diagnosis: chronic myelocytic leukemia progressed to acute myelocytic leukemia. Blood profile before TPA treatment: Hb: 84 g/L; WBC: 36.6×10^9 /L, platelet: 290×10^9 /L. Bone marrow profile before TPA treatment: myeloblast+promyelocyte: 27.5%. TPA treatment: 1 mg/week for 2 weeks. Blood profile after treatment: Hb: 84 g/L; WBC: 27.3×10^9 /L, platelet: 170×10^9 /L. Bone marrow profile after TPA treatment: myeloblast+promyelocyte: 1.5%.
All the above patients had received various regimens of chemotherapy prior to the TPA treatment, including hydroxyurea, busulfan, and Ara-C, etc. but none was effective at the start of TPA treatment. Before the administration of TPA, patients received injection of 6×10^5 units of vitamin D3 (VD3)/person for 2 days; after the TPA administration, patients received i.v. infusion of 40 mg of Ara-C/d×3. […] These patients have been in clinical remission for over 6 months.
Subject No. (6), person. Diagnosed as AML-M3. Symptoms began in January, 1995. Blood profile: Hb:60 g/L, WBC: 0.4×10^9 /L, platelet: 40×10^9 /L. Bone marrow profile: myeloblast+promyelocyte: 48%. The TPA treatment period was 1 mg/week for three weeks, and 6×10^5 units VD3 /d×3 were injected prior to the treatment. […] The patient has been in remission after treatment for at least 6 months.
Subject No. (7), person. Diagnosis: MDS-REAB accompanied by an increased number of monocytes. […] The patient started to receive a combination treatment of 1,25-(OH)2 VD3 +TPA+low dose Ara-C. TPA dosage: 0.25-0.5 mg (1 mg per week) for eleven weeks. […]

[1] = subject 6, AML-M3, TPA 1 mg/week three weeks, VD3 prior
[2] = subject 7, MDS-REAB, 1,25-(OH)2 VD3+TPA+low dose Ara-C, eleven weeks
[3] = subject 7, combination with 1,25-(OH)2 VD3 and Ara-C
[4] = subject 7, combination with 1,25-(OH)2 VD3 and Ara-C, blood
[5] = subject 8, AML-M3, retinoic acid failed
[6] = subject 9, secondary aplastic anemia, TPA 0.25 mg×2
[7] = subject 10, CML, TPA 0.25 mg once
[8] = subject 10, CML, TPA 0.25 mg once, second day
[9] = subjects 1-5, VD3 before, Ara-C after TPA

Q: How did the “Bone marrow myeloblast+promyelocyte after TPA treatment” value (CML progressed to AML, TPA 1 mg/week for 2-7 weeks, VD3 before, Ara-C after) turn out when `CCCCCCCCCCCCCC(=O)O[C@@H]1[C@@H](C)[C@@]2(O)[C@@H](C=C(CO)C[C@]3(O)C(=O)C(C)=C[C@@H]23)[C@@H]2C(C)(C)[C@]12OC(C)=O` [TPA, Phorbol 12-Myristate-13-Acetate] was run?
A: 2.5% and 3% and 2% and 4.5% and 1.5%

Q: What about the “duration of clinical remission” value (many of the patients, from first treatment) of the same compound?
A: over six months

Q: What about the clinical remission (refractory leukemia patients) of the same compound?
A: clinical remission was achieved in a relatively short time

Q: And the “bone marrow suppression, infection or bleeding” value (refractory leukemia patients)?
A: no bone marrow suppression, infection or bleeding

Q: What about the “Spleen below the rib cage after treatment” value (subject 2, TPA 1 mg/week for 5 weeks) of the same compound?
A: 0.5 cm

Q: What about the duration of remission (subject 6, AML-M3) of the same compound?
A: at least 6 months

Q: What about the remission (subject 6, AML-M3) of the same compound?
A: met the standard for AML-M3 remission

Q: What about the “Bone marrow myeloblast+promyelocyte after first treatment period” value [1] of the same compound?
A: 3%

Q: And the “Hb after first treatment period” value [1]?
A: 118 g/L

Q: What about the “WBC after first treatment period” value [1] of the same compound?
A: 4.1e+09 L⁻¹

Q: What about the “platelet after first treatment period” value [1] of the same compound?
A: 8e+10 L⁻¹

Q: And the Hb after treatment [2]?
A: 42 g/L

Q: What about the WBC after treatment [2] of the same compound?
A: 1.02e+10 L⁻¹

Q: And the platelet after treatment [2]?
A: 3.4e+10 L⁻¹

Q: And the “Spleen below the rib cage after treatment” value [2]?
A: 0.5 cm

Q: And the “Bone marrow myeloblast after treatment” value [3]?
A: 4%

Q: What about the “Bone marrow promyelocyte after treatment” value [3] of the same compound?
A: 6%

Q: And the Lymphocyte after treatment [4]?
A: 19%

Q: What about the Monocyte after treatment [4] of the same compound?
A: 1%

Q: And the Neutrophil after treatment [4]?
A: 80%

Q: And the “Promyelocytes in blood after treatment” value [4]?
A: not detected

Q: And the “WBC after TPA treatment” value [5]?
A: 2.2e+09 L⁻¹

Q: And the “platelet after TPA treatment” value [5]?
A: 2.23e+11 L⁻¹

Q: And the “Hb after TPA treatment” value [6]?
A: 32 g/L

Q: What about the “platelet after TPA treatment” value [6] of the same compound?
A: 5.7e+10 L⁻¹

Q: And the Hb after treatment [7]?
A: 96 g/L

Q: And the WBC after treatment [7]?
A: 2e+09 L⁻¹

Q: What about the platelet after treatment [7] of the same compound?
A: 1.12e+11 L⁻¹

Q: And the “myeloblast+promyelocyte” value [8]?
A: 4%

Q: And the myelocyte [8]?
A: 5%

Q: And the “clinical remission in bone marrow parameters” value [9]?
A: all achieved clinical remission in bone marrow parameters in a short time

Q: What about the “duration of clinical remission” value [9] of the same compound?
A: over 6 months

Q: And the “bone marrow suppression, infection or bleeding” value (subjects 1-5)?
A: no bone marrow suppression, nor infection or bleeding
